Legend:
ABUTH [1] = assay: Herbicidal pre-emergence action (Table A1); type: in vivo, Abutilon theophrasti; conditions: application rate 1280 g/ha; visual grading after ca. 3 weeks vs untreated controls (100% = plants have died off, 0% = as control plants)
Summary of the method: (§1)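 Weed seeds are sown into sandy loam in pots and covered with soil, with two species per pot, one monocot and one dicot.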

ECHCG [2] = assay: Herbicidal pre-emergence action (Table A2); type: in vivo, Echinochloa crus-galli; conditions: application rate 320 g/ha; visual grading after ca. 3 weeks
Summary of the method: as §1

LOLRI [3] = assay: Herbicidal pre-emergence action (Table A3); type: in vivo, Lolium rigidum; conditions: application rate 1280 g/ha; visual grading after ca. 3 weeks
Summary of the method: as §1

MATIN [4] = assay: Herbicidal pre-emergence action (Table A4); type: in vivo, Matricaria inodora; conditions: application rate 320 g/ha; visual grading after ca. 3 weeks
Summary of the method: as §1

SETVI [5] = assay: Herbicidal pre-emergence action (Table A5); type: in vivo, Setaria viridis; conditions: application rate 320 g/ha; visual grading after ca. 3 weeks
Summary of the method: as §1

STEME [6] = assay: Herbicidal pre-emergence action (Table A6); type: in vivo, Stellaria media; conditions: application rate 320 g/ha; visual grading after ca. 3 weeks
Summary of the method: as §1

POAAN [7] = assay: Herbicidal pre-emergence action (Table A7); type: in vivo, Poa annua; conditions: application rate 1280 g/ha; visual grading after ca. 3 weeks
Summary of the method: as §1

AMARE [8] = assay: Herbicidal pre-emergence action (Table A8); type: in vivo, Amaranthus retroflexus; conditions: application rate 320 g/ha; visual grading after ca. 3 weeks vs untreated controls (100% = plants have died off, 0% = as control plants)
Summary of the method: as §1

ALOMY [9] = assay: Herbicidal pre-emergence action (Table A9); type: in vivo, Alopecurus myosuroides; conditions: application rate 1280 g/ha; visual grading after ca. 3 weeks
Summary of the method: as §1

KCHSC [10] = assay: Herbicidal pre-emergence action (Table A10); type: in vivo, Kochia scoparia; conditions: application rate 320 g/ha; visual grading after ca. 3 weeks
Summary of the method: as §1

VERPE [11] = assay: Herbicidal pre-emergence action (Table A11); type: in vivo, Veronica persica; conditions: application rate 1280 g/ha; visual grading after ca. 3 weeks
Summary of the method: as §1

ECHCG [12] = assay: Herbicidal post-emergence action (Table B3); type: in vivo, Echinochloa crus-galli; conditions: application rate 1280 g/ha; rated visually after about 3 weeks
Summary of the method: (§2)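 Greenhouse post-emergence screen on potted weeds in sandy loam, treatment at one-leaf stage, visual % control scored ~3 weeks later against untreated plants.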

KCHSC [13] = assay: Herbicidal post-emergence action (Table B4); type: in vivo, Kochia scoparia; conditions: application rate 1280 g/ha; rated visually after about 3 weeks
Experimental: (§3) Seeds of mono- and dicotyledonous weed plants were placed in plastic pots in sandy loam soil (doubly sown with in each case one species of mono- or dicotyledonous weed plants per pot), covered with soil and cultivated in a greenhouse under controlled growth conditions. 2 to 3 weeks after sowing, the test plants were treated at the one-leaf stage. […] After the test plants had been kept in the greenhouse under optimum growth conditions for about 3 weeks, the activity of the preparations was rated visually in comparison to untreated controls. For example, 100% activity = the plants have died, 0% activity = like control plants.

LOLRI [14] = assay: Herbicidal post-emergence action (Table B5); type: in vivo, Lolium rigidum; conditions: application rate 1280 g/ha; rated visually after about 3 weeks
Summary of the method: as §2

MATIN [15] = assay: Herbicidal post-emergence action (Table B6); type: in vivo, Matricaria inodora; conditions: application rate 320 g/ha; rated visually after about 3 weeks
Summary of the method: as §2

POAAN [16] = assay: Herbicidal post-emergence action (Table B7); type: in vivo, Poa annua; conditions: application rate 320 g/ha
Summary of the method: as §2

STEME [17] = assay: Herbicidal post-emergence action (Table B9); type: in vivo, Stellaria media; conditions: application rate 1280 g/ha
Experimental: as §3

AMARE [18] = assay: Herbicidal post-emergence action (Table B11); type: in vivo, Amaranthus retroflexus; conditions: application rate 1280 g/ha
Summary of the method: as §2

ALOMY [19] = assay: Herbicidal pre-emergence action, section C (Table C2); type: in vivo, Alopecurus myosuroides; conditions: application rate 320 g/ha; visual grading after ca. 3 weeks
AMARE [20] = assay: Herbicidal pre-emergence action, section C (Table C3); type: in vivo, Amaranthus retroflexus; conditions: application rate 320 g/ha; visual grading after ca. 3 weeks
Description: (§5) Seeds of mono- and dicotyledonous weed plants and crop plants were sown, in plastic or organic planting pots, in sandy loam and covered with soil. The compounds according to the invention, formulated in the form of wettable powders (WP) or as emulsifiable concentrates (EC), were applied to the surface of the covering soil as aqueous suspension or emulsion, with the addition of 0.5% of an additive, at an application rate of 600 1 of water/ha (converted). Following treatment, the pots were placed in a greenhouse and kept under optimum growth conditions for the test plants.

ECHCG [21] = assay: Herbicidal pre-emergence action, section C (Table C6); type: in vivo, Echinochloa crus-galli; conditions: application rate 320 g/ha; visual grading after ca. 3 weeks
LOLRI [22] = assay: Herbicidal pre-emergence action, section C (Table C7); type: in vivo, Lolium rigidum; conditions: application rate 80 g/ha; visual grading after ca. 3 weeks
Description: as §5

MATIN [23] = assay: Herbicidal pre-emergence action, section C (Table C8); type: in vivo, Matricaria inodora; conditions: application rate 320 g/ha; visual grading after ca. 3 weeks
Description: as §5

SETVI [24] = assay: Herbicidal pre-emergence action, section C (Table C10); type: in vivo, Setaria viridis; conditions: application rate 80 g/ha; visual grading after ca. 3 weeks
GLXMA [25] = assay: Pre-emergence effects on crop plants (Table D4); type: in vivo, Glycine max; conditions: crop plant; application rate 80 g/ha; visual grading after ca. 3 weeks
BRSNW [26] = assay: Pre-emergence effects on crop plants (Table D5); type: in vivo, Brassica napus; conditions: crop plant; application rate 80 g/ha; visual grading after ca. 3 weeks
Description: Seeds of mono- and dicotyledonous weed plants and crop plants were sown, in plastic or organic planting pots, in sandy loam and covered with soil. The compounds according to the invention, formulated in the form of wettable powders (WP) or as emulsifiable concentrates (EC), were applied to the surface of the covering soil as aqueous suspension or emulsion, with the addition of 0.5% of an additive, at an application rate of 600 1 of water/ha (converted).
Following treatment, the pots were placed in a greenhouse and kept under optimum growth conditions for the test plants.

ALOMY [27] = assay: Herbicidal post-emergence action, section E (Table E2); type: in vivo, Alopecurus myosuroides; conditions: application rate 320 g/ha; assessed visually after ca. 3 weeks
Description: (§4) 2 to 3 weeks after sowing, the test plants were sprayed in the single-leaf stage.

ECHCG [28] = assay: Herbicidal post-emergence action, section E (Table E5); type: in vivo, Echinochloa crus-galli; conditions: application rate 320 g/ha; assessed visually after ca. 3 weeks
Description: as §4

SETVI [29] = assay: Herbicidal post-emergence action, section E (Table E8); type: in vivo, Setaria viridis; conditions: application rate 320 g/ha; assessed visually after ca. 3 weeks
Description: as §4

ZEAMX = assay: Post-emergence effects on crop plants (Table F1); type: in vivo, Zea mays; conditions: application rate 320 g/ha, crop plant ZEAMX
Description: as §4

ORYZA [30] = assay: Post-emergence effects on crop plants (Table F3); type: in vivo, Oryza sativa; conditions: application rate 320 g/ha, crop plant ORYZA
Description: as §4

GLXMA [31] = assay: Post-emergence effects on crop plants (Table F4); type: in vivo, Glycine max; conditions: application rate 320 g/ha, crop plant GLXMA
Description: as §4

BRSNW [32] = assay: Post-emergence effects on crop plants (Table F5); type: in vivo, Brassica napus; conditions: application rate 320 g/ha, crop plant BRSNW
Description: as §4

ORYZA [33] = assay: Pre-emergence effects on crop plants (Table D3); conditions: crop plant; application rate 80 g/ha; visual grading after ca. 3 weeks
ABUTH [34] = assay: Herbicidal pre-emergence action, section C (Table C1); type: in vivo, Abutilon theophrasti; conditions: application rate 320 g/ha; visual grading after ca. 3 weeks
DIGSA = assay: Herbicidal pre-emergence action, section C (Table C5); type: in vivo, Digitaria sanguinalis; conditions: application rate 320 g/ha; visual grading after ca. 3 weeks
VERPE [35] = assay: Herbicidal pre-emergence action, section C (Table C11); type: in vivo, Veronica persica; conditions: application rate 320 g/ha; visual grading after ca. 3 weeks
VIOTR = assay: Herbicidal pre-emergence action, section C (Table C12); type: in vivo, Viola tricolor; conditions: application rate 320 g/ha; visual grading after ca. 3 weeks
TRZAS = assay: Post-emergence effects on crop plants (Table F2); type: in vivo, Triticum aestivum; conditions: application rate 320 g/ha, crop plant TRZAS
Description: as §4

O=C1N(Cc2cccs2)CCCC12CCCN(Cc1c(F)cccc1F)C2=O (racemic) [I-011]
pre-emergence activity against ABUTH (ABUTH [1]): 90% | pre-emergence activity against ECHCG (ECHCG [2]): 100% | pre-emergence activity against LOLRI (LOLRI [3]): 100% | pre-emergence activity against MATIN (MATIN [4]): 90% | pre-emergence activity against SETVI (SETVI [5]): 100% | pre-emergence activity against STEME (STEME [6]): 90% | pre-emergence activity against POAAN (POAAN [7]): 100% | pre-emergence activity against AMARE (AMARE [8]): 90% | pre-emergence activity against ALOMY (ALOMY [9]): 90% | pre-emergence activity against KCHSC (KCHSC [10]): 90% | pre-emergence activity against VERPE (VERPE [11]): 90% | post-emergence activity against ECHCG (ECHCG [12]): 90% | post-emergence activity against KCHSC (KCHSC [13]): 90% | post-emergence activity against LOLRI (LOLRI [14]): 90% | post-emergence activity against MATIN (MATIN [15]): 90% | post-emergence activity against POAAN (POAAN [16]): 100% | post-emergence activity against STEME (STEME [17]): 90% | post-emergence activity against AMARE (AMARE [18]): 90% | pre-emergence activity against ALOMY (ALOMY [19]): 90% | pre-emergence activity against AMARE (AMARE [20]): 90% | pre-emergence activity against ECHCG (ECHCG [21]): 90% | pre-emergence activity against LOLRI (LOLRI [22]): 80% | pre-emergence activity against MATIN (MATIN [23]): 80% | pre-emergence activity against SETVI (SETVI [24]): 100% | pre-emergence activity against GLXMA (GLXMA [25]): 20% | pre-emergence activity against BRSNW (BRSNW [26]): 20% | post-emergence activity against ALOMY (ALOMY [27]): 80% | post-emergence activity against ECHCG (ECHCG [28]): 80% | post-emergence activity against SETVI (SETVI [29]): 80% | post-emergence activity against ZEAMX (ZEAMX): 10% | post-emergence activity against ORYZA (ORYZA [30]): 20% | post-emergence activity against GLXMA (GLXMA [31]): 20% | post-emergence activity against BRSNW (BRSNW [32]): 0% | pre-emergence activity against ORYZA (ORYZA [33]): 10%

O=C1N(Cc2c(F)cccc2F)CCCC12CCCN(Cc1c(F)cccc1F)C2=O (single isomer, unassigned; (+)) [I-083, (+)-2,8-bis[(2,6-difluorophenyl)methyl]-2,8-diazaspiro[5.5]undecane-1,7-dione]
pre-emergence activity against ABUTH (ABUTH [34]): 100% | pre-emergence activity against ALOMY (ALOMY [19]): 90% | pre-emergence activity against AMARE (AMARE [20]): 100% | pre-emergence activity against DIGSA (DIGSA): 90% | pre-emergence activity against MATIN (MATIN [23]): 100% | pre-emergence activity against VERPE (VERPE [35]): 100% | pre-emergence activity against VIOTR (VIOTR): 100% | post-emergence activity against ZEAMX (ZEAMX): 0% | post-emergence activity against TRZAS (TRZAS): 10% | post-emergence activity against ORYZA (ORYZA [30]): 0% | post-emergence activity against GLXMA (GLXMA [31]): 0% | post-emergence activity against BRSNW (BRSNW [32]): 0%

Reference: patent EP4273147A1, “SUBSTITUTED SPIROLACTAMS, SALTS THEREOF AND THEIR USE AS HERBICIDALLY ACTIVE SUBSTANCES” (Bayer Aktiengesellschaft, priority 2022, dated 2023)
